This note sets out measurements from US12433292B2, “Method of production of controlled release silica nanoparticles for plant growth and/or defense enhancement” (ADOLPHE MERKLE INSTITUTE, UNIVERSITY OF FRIBOURG, priority 2019, dated 2025).

Series [1] deals with Medicago sativa (alfalfa) seeds. Briefly: Alfalfa germination test. As for the experimental part: (§1) Independent 60 seed to 800 seed germination tests were conducted following standard seed testing protocols. Briefly, the seeds were placed on filter paper wettened with the active ingredient solution or nanoparticle suspension under investigation and germinated for 5-10 days. The infection of seeds with fungi and bacteria, and the germination rates were determined by counting the infested and germinated seeds, respectively. The germination speed was assessed by counting all fully emerged cotyledons. Blanks (water only) and dissolved silicon control (orthosilicic acid solution) were run in parallel to all experiments in 3-8 replicates. As a positive control, a solution of the commercially available fungicide tebuconazole was run in parallel. The SiO2-NP exposed plants were embedded in low viscosity epoxy resin for transmission electron microscopy imaging.

In series [2] the test system is fungi and bacteria. Put plainly: Alfalfa germination test: infection of seeds. The class given is in vivo, Medicago sativa. To be noted: positive control. The procedure:
as §1

Take orthosilicic acid: the “overall effect on fungal infection, cotyledon emergence, seed vigor and biomass” value in series [1] (germination and soil growth tests) is given as “performed equally or worse compared to the nanoparticles”.
With `CC(C)(C)C(O)(CCc1ccc(Cl)cc1)Cn1cncn1` (stereo not drawn) [tebuconazole], in series [1] (100 ppm), the cotyledon emergence entry was “detrimental effects” and the germination entry was “detrimental effects”. Further, the “adverse effects on germinating seeds” value in series [1] (4000 ppm) is on record as “some adverse effects”. The “toxicity to the seed” value in series [1] (same or comparable concentrations) is on record as “exhibited toxicity to the seeds”. Further, the effect on fungi entry in series [2] is given as “killing all fungi”.
